Assay results as given in ChEMBL document CHEMBL1201862, “PubChem BioAssay data set” (2004).
Values belong to the compound of their own block, whether it stands above or below them. Active and inactive are the calls of the source.

Experiments:
[1] = target: T1, Tyrosine-protein phosphatase non-receptor type 22 (Homo sapiens, UniProt Q9Y2R2); assay: SAR LYP1 Fluorescent Assay using pCAP substrate for In Vitro dose response studies - Set 2. [Related pubchem assays (depositor defined):AID1779, AID1784, AID2135, AID449727]; type: functional
T1 sequence (Q9Y2R2 whole entry): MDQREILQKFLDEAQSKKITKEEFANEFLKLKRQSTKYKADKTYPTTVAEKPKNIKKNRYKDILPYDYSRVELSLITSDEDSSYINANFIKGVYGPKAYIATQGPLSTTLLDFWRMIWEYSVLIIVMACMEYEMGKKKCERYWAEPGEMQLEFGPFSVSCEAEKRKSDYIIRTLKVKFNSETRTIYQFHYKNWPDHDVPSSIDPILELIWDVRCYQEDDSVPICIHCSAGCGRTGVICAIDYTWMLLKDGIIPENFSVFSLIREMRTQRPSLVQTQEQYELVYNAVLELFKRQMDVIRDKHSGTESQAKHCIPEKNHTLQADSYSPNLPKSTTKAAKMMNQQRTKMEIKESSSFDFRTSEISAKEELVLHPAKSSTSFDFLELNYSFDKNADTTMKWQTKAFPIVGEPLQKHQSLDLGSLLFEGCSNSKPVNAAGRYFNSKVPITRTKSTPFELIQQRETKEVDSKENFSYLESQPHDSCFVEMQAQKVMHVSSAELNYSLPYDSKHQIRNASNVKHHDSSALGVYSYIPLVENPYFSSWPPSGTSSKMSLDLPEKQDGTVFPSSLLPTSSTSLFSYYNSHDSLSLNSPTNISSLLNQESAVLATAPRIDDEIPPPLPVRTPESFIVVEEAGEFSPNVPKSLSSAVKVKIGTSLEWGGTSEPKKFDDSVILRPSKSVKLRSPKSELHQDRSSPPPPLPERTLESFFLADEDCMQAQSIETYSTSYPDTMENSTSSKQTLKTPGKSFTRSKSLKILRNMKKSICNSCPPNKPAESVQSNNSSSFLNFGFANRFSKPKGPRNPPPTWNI

[2] = target: Tyrosine-protein phosphatase non-receptor type 12 (Homo sapiens, UniProt Q05209); assay: SAR Selectivity Analysis of small molecule inhibitors of PEST using pCAP in a fluorescence assay. [Related pubchem assays (depositor defined):AID1779, AID1784, AID2135]; type: functional
[3] = target: T1, Tyrosine-protein phosphatase non-receptor type 22; assay: SAR LYP1 Fluorescent Assay using OMFP substrate for In Vitro dose response studies - Set 3. [Related pubchem assays (depositor defined):AID1779, AID1784, AID2140, AID2686]; type: functional
[4] = target: T2, Tyrosine-protein phosphatase non-receptor type 7 (Homo sapiens, UniProt P35236); assay: HePTP (PTPN7) phosphatase inhibitor potency, SAR follow-up, biochemical, set 2 (AID 449736); type: functional
T2 sequence (P35236 whole entry): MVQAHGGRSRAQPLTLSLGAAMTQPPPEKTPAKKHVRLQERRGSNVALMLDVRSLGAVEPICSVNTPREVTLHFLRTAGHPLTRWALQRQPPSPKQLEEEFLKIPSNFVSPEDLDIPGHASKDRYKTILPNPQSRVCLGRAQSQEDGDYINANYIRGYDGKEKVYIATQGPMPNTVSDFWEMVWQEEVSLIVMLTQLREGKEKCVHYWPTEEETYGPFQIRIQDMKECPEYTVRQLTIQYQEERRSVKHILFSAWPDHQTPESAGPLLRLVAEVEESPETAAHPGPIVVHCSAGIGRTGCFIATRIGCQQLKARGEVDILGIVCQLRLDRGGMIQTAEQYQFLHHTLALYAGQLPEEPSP

[5] = target: T1, Tyrosine-protein phosphatase non-receptor type 22; assay: LYP (PTPN22) phosphatase inhibitor potency, SAR follow-up, biochemical, pCAP fluorogenic substrate, fluorescence, set 3 (AID 449727); type: functional
[6] = target: T1, Tyrosine-protein phosphatase non-receptor type 22; assay: SAR LYP1 Fluorescent Assay using OMFP substrate for In Vitro dose response studies - Set 2. [Related pubchem assays (depositor defined):AID1779, AID1784, AID2140, AID449726, AID488869]; type: functional
[7] = target: Kappa-type opioid receptor (Homo sapiens, UniProt P41145); assay: SAR analysis of small molecule agonists of the kappa opioid receptor via a luminescent beta-arrestin assay - Set 3. [Related pubchem assays (depositor defined):AID1777, AID1785, AID1786, AID1966, AID2133, AID2136, AID2284, AID2500]; type: functional
[8] = target: T3, Delta-type opioid receptor (Homo sapiens, UniProt P41143); assay: HTS Image-Based Screen for Antagonists of the DOR Receptor. [Related pubchem assays (depositor defined):AID1777, AID1785, AID1786, AID2133]; type: functional
[9] = target: T4, Mu-type opioid receptor (Homo sapiens, UniProt P35372); assay: HTS Image-Based Screen for Agonists of the MOR Receptor. [Related pubchem assays (depositor defined):AID1777, AID1785, AID1786, AID2133]; type: functional
[10] = target: T3, Delta-type opioid receptor; assay: HTS Image-Based Screen for Agonists of the DOR Receptor. [Related pubchem assays (depositor defined):AID1777, AID1786, AID2133]; type: functional
[11] = target: Beta-galactosidase (Escherichia coli, UniProt Q8VNN2); type: functional
[12] = target: T4, Mu-type opioid receptor; assay: MOR agonists by imaging, SAR follow-up, image-based (AID 2352); type: functional
[13] = target: T4, Mu-type opioid receptor; assay: SAR Analysis of Antagonists of the MOR Receptor using an Image-Based Assay - Set 3. [Related pubchem assays (depositor defined):AID1777, AID1785, AID1786, AID1966, AID2133, AID2136, AID2284, AID2285, AID2420]; type: functional
[14] = target: T3, Delta-type opioid receptor; assay: DOR agonists, SAR follow-up, image-based (AID 2370); type: functional
[15] = target: T3, Delta-type opioid receptor; assay: SAR Analysis of Antagonists of the DOR Receptor using an Image-Based Assay - Set 3. [Related pubchem assays (depositor defined):AID1777, AID1785]; type: functional
[16] = target: T4, Mu-type opioid receptor; assay: MOR antagonists, SAR follow-up, image-based (AID 2420); type: functional;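 also: compounds added before stimulation of receptor with agonist DAMGO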
[17] = target: T3, Delta-type opioid receptor; assay: DOR antagonists, SAR follow-up, image-based (AID 2357); type: functional
[18] = target: T5, E3 ubiquitin-protein ligase XIAP (Homo sapiens, UniProt P98170); assay: Counter Screen using XIAP-Bir3 for Chemical Antagonists of Bir1/2 domains of IAP-family anti-apoptotic proteins. [Related pubchem assays (depositor defined):AID1018, AID1449, AID1514, AID1638, AID1749, AID1750, AID488957, AID488963]
[19] = target: T5, E3 ubiquitin-protein ligase XIAP; assay: XIAP antagonists, biochemical, IAP family, fluorescence polarization (AID 1018); type: functional

T4 sequence (P35372 whole entry): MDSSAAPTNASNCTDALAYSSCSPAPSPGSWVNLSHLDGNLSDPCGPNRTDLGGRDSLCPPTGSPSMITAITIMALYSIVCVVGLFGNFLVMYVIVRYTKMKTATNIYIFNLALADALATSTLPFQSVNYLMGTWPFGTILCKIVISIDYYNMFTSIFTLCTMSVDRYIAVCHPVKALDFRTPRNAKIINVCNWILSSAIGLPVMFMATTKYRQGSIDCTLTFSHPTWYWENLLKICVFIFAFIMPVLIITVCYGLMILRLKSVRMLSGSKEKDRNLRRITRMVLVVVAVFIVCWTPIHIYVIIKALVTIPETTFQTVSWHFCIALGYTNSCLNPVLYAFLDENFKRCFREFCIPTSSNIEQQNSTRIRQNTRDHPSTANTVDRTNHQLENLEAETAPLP
T3 sequence (P41143 whole entry): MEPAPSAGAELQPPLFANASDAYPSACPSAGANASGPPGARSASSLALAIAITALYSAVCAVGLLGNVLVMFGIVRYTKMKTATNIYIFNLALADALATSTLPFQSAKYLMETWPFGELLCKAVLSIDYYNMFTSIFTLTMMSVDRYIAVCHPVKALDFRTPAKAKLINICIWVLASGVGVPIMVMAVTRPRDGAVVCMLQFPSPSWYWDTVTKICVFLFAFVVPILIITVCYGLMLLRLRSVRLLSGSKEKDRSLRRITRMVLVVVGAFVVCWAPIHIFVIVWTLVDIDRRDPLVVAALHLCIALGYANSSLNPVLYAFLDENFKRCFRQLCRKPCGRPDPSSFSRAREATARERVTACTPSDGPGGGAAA
T5 sequence (P98170 whole entry): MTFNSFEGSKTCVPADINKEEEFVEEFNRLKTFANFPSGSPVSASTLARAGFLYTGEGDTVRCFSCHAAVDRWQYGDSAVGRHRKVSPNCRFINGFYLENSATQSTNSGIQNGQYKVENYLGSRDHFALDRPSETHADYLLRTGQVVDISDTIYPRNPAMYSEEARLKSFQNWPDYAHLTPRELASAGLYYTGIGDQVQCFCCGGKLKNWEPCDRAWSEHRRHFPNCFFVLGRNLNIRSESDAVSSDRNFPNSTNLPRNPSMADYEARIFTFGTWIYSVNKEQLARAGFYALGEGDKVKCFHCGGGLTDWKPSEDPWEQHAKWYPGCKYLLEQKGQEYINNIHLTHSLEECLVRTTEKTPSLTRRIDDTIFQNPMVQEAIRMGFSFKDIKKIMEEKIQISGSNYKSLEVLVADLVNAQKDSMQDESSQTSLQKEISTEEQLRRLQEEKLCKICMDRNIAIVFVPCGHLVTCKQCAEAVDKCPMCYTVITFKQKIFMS
Chain of Kappa-type opioid receptor (P41145 whole entry): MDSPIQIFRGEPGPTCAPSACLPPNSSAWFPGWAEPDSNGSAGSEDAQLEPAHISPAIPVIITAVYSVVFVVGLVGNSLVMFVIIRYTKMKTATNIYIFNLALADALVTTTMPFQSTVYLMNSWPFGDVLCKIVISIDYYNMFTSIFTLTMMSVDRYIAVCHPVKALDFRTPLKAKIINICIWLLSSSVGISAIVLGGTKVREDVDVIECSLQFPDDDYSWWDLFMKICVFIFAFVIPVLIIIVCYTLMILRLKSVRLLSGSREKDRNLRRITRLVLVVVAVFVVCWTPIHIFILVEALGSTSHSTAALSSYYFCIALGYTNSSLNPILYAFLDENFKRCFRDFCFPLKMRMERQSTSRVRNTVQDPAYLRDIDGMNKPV
Chain of Beta-galactosidase (Q8VNN2 whole entry): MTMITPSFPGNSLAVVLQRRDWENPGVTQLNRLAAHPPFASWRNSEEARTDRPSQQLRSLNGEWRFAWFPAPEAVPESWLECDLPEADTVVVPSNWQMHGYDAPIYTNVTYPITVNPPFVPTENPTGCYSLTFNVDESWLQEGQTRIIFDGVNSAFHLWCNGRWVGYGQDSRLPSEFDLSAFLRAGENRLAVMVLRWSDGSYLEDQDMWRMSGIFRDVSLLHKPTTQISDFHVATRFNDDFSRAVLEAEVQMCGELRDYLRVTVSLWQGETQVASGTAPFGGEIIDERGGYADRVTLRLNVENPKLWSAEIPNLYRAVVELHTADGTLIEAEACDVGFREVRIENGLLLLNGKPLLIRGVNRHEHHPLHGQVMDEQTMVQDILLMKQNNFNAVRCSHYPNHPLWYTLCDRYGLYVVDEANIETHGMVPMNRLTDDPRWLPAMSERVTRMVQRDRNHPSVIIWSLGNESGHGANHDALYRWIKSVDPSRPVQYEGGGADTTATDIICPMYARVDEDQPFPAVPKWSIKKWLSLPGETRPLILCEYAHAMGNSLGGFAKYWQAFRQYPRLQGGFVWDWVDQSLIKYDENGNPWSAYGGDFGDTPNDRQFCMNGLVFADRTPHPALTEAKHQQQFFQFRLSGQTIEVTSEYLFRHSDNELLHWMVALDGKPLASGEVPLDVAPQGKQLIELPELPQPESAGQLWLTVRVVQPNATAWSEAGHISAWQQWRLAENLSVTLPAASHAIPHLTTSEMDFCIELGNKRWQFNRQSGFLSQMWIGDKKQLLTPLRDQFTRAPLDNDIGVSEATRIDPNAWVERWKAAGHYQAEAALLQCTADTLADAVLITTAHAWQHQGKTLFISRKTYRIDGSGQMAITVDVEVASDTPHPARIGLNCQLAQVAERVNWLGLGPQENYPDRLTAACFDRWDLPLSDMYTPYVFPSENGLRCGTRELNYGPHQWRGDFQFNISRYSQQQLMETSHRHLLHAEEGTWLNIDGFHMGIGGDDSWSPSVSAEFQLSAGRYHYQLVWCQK
Chain of Tyrosine-protein phosphatase non-receptor type 12 (Q05209 whole entry): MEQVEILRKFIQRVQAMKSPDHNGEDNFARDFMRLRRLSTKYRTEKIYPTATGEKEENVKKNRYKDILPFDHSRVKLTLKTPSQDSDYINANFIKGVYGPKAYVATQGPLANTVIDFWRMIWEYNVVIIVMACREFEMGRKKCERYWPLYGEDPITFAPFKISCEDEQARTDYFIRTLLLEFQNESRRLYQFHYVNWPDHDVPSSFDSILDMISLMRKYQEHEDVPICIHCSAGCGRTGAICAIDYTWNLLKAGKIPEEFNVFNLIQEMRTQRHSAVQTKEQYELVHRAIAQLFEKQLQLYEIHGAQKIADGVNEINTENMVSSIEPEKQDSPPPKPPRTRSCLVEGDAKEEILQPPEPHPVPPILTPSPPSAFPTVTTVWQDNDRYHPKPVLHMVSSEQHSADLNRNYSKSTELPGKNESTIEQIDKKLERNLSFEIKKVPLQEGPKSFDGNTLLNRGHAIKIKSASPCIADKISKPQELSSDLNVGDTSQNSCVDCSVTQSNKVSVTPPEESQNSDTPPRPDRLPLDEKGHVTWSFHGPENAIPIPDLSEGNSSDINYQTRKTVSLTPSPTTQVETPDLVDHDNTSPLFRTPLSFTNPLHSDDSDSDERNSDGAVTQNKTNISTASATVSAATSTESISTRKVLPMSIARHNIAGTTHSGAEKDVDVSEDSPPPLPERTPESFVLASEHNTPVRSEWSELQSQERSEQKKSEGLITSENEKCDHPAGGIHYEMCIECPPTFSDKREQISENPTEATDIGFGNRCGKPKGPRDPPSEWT

IC50 [1]: > 100 µM (inactive) | IC50 [2]: 45.1 µM (active) | IC50 [3]: > 100 µM (inactive) | IC50 [4]: 0.465 µM (active) | IC50 [5]: > 100 µM (inactive) | IC50 [6]: > 100 µM (inactive)
Structure (SMILES): O=C(O)COc1ccc(Nc2ccccc2)cc1

EC50 [7]: > 20 µM (inactive)
Structure (SMILES): c1ccc(CSc2nnc(-c3ccccn3)n2Cc2cccnc2)cc1

IC50 [8]: > 32 µM (inactive) | EC50 [9]: > 32 µM (inactive) | EC50 [10]: > 32 µM (inactive) | EC50 [11]: > 31.5 µM (inactive) | EC50 [12]: > 32 µM (inactive) | IC50 [13]: 14 µM (inactive) | EC50 [14]: > 32 µM (inactive) | IC50 [15]: > 32 µM (inactive) | IC50 [16]: > 32 µM (inactive) | IC50 [17]: > 32 µM (inactive)
Structure (SMILES): Cc1ccc(S(=O)(=O)NCc2ccc(C(=O)NCCN(Cc3ccccc3)C(C)C)cc2)cc1

IC50 [18]: > 100 µM (inactive) | IC50 [19]: > 100 µM (not active)
Structure (SMILES): CC(=O)NCCc1csc(-c2ccccc2)n1
